From patent EP0585371B1, “AROMATIC OLIGOMERIC COMPOUNDS USEFUL AS MIMICS OF BIOACTIVE MACROMOLECULES” (RHONE-POULENC RORER INTERNATIONAL (HOLDINGS) INC., priority 1991, dated 1992)
“And” between values parts separate entries of the source, which are not always exact repeats. Identical values can stand only once. Like-named read-outs stand apart in the source and are kept apart here.

What was measured:
normal pooled plasma = assay: Anticoagulation activity, Activated Partial Thromboplastin Time (APTT) test; conditions: concentration required to double clotting time
Procedure: The following test measures anticoagulant activity of the oligomers of the present invention and utilizes the Activated Partial Thromboplastin Time (APTT) test, with the following procedures.
To an assay cuvette is added 100 µl of normal pooled plasma (George King Biomedical Inc., Kansas) and […] of a solution containing the test compound in aqueous 50 mM Tris hydrochloride at pH 7.5 (0.2 mg of sample in one ml buffer). The sample is placed in a MLA coagulation timer which automatically maintains the sample at 37°C for 2.5 minutes, 100 µl of actin activated cephaloplastin reagent is injected, kept 5 minutes, 100 µl of 35 mM CaCI is injected, and clot formation is determined photometrically and the clotting time recorded. Each example is examined at a variety of concentrations, generally from about .025 mg/ml to about 1 mg/ml, and the clotting times are graphed as a function of concentration. From the graphic results, the concentration required to double clotting time (ICDCT) is calculated by linear interpolation.

vWF Binding to Gp1b = biological target: T1, vWF Binding to Gp1b (Homo sapiens, UniProt P04275+P07359); assay: Inhibition of ristocetin-induced binding of 125I-vWF to formalin-fixed platelets; conditions: at 100 µg/ml; ristocetin 1.0 mg/ml
T1 construct: multimeric vWF (isolated from human plasma cryoprecipitate); Formalin-fixed platelets, prepared according to the method of MacFarlane; from tissue; host or cells: vWF from human plasma cryoprecipitate; GPIb on formalin-fixed platelets
Procedure: The binding of vWf (vonWillebrand Factor) to glycoprotein Ib is measured in one of two experimental systems, in the presence of either ristocetin or botrocetin as modulators of binding. The ristocetin modulated binding is described herein.
Formalin-fixed platelets, prepared according to the method of MacFarlane, D. et al., Thromb. Diath. Haemorrh. 34, 306-308 (1975), were preincubated at room temperature for 15 minutes with specified dilutions of oligomers according to the present invention. Ristocetin, (Sigma, St. Louis, MO) diluted to a final concentration of 1.0 mg/ml, and ^125I-labelled multimeric vWF (isolated from human plasma cryoprecipitate according to the method of Fulcher, C.A. et al. Proc. Natl. Acad. Sci. USA, 79, 1648-1652 (1982), and labelled according to the method of Fraker, P.J. et al. Biochem. Biophys. Res. Commun., 80, 849-857 (1978)) were then added to the incubation mixture, and the amount of ^125I- vWF bound to the platelets was determined. ^125I-vWF binding to the platelets was referenced against 100% binding which was defined as the amount of ^125I- vWF bound in the absence of added oligomer compound. The method for measuring vWF binding is reported in detail in Ruggeri et al., J. Clin. Invest., 72, 1-12, (1983), herein incorporated by reference.

[1] = biological target: T2, Human neutrophil elastase (Homo sapiens, UniProt P08246); assay: Human Granulocyte Elastase Inhibition Assay; type: biochemical; conditions: substrate S-2484, pH 8.3
T2 construct: purchased ICN Biochemical
T2 sequence (P08246 30-267): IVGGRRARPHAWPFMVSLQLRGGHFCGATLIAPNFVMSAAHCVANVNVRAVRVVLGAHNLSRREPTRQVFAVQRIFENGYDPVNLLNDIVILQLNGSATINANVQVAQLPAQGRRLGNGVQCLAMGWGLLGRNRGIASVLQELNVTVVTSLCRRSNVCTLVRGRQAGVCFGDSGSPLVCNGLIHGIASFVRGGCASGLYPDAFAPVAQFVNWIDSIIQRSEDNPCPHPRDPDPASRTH
Procedure: The Human Granulocyte Elastase Inhibition assay is a standard test procedure and is essentially that of Kramps, et al., "L-Pyroglutamyl-L-prolyl-L-valine-p-nitroanilide, a highly specific substrate for granulocyte elastase", Scand. J. clin. Lab. Invest. 43, 427-432 (1983).
A stock solution of 8.0 mM L-pyroglutamyl-L-prolyl-L-valine-p-nitroanilide (S-2484, obtained from Kabi) in dimethylsulfoxide is diluted to 2.0 mM in 0.03 M Tris buffer, pH 8.3, to give the working substrate solution. Human neutrophil elastase (obtained from ICN Biochemical) is diluted in the same buffer to 1 unit/ml to give the working enzyme solution.
A control assay is run in which a solution of 10 µl of buffer and 10µl of working enzyme solution is incubated at room temperature for 1 minute and 330 µl of buffer and 50 µl of working substrate solution is then added. The increase in absorbance (ΔOD/min) at 405 nm is measured.
In the experimental assay 10µl of a solution containing a compound of the present invention (in concentrations ranging from 1 mg/ml to 0.1 µg/ml), or other inhibitor to be tested, in buffer is substituted for the 10 µl of buffer with which the enzyme is incubated in the control assay and the procedure followed as for the control assay above. The ΔOD/min is measured and the result expressed as percentage inhibition for the given concentration of inhibitor as compared with the ΔOD/min for the control. Percent inhibition versus concentration of compound of the present invention or other inhibitor is plotted and the data extrapolated to give the concentration required for 50% inhibition of the enzyme (IC50).

[2] = tested on: Vascular smooth muscle cells (VSMC); assay: Smooth Muscle Cell DNA Synthesis Assay (3H-thymidine incorporation in response to PDGF); type: cell-based, swine; conditions: inhibition of incorporation of 3H-thymidine in response to PDGF (9 ng/ml)
Procedure: Vascular smooth muscle cells (VSMC) are isolated from swine coronaries obtained from swine hearts (Hatfield Meat Packing, Hatfield, PA) by enzyme dissociation as described by Gunther, et al., in J. Cell. Biol. 92, 289 (1982). Hyaluronidase (0.5 mg/ml) is added to facilitate dispersal. Cells are maintained in Earle's modified minimal essential medium (EMEM) with D-valine substituted for L-valine, supplemented with Hepes (10 mM), fetal bovine serum (FBS) (10%), penicillin (100 U/ml) and streptomycin ( 100 µg/ml).
The VSMC (passage 2) are plated at a density of 3 x 10^4 /cm2 (1x10^4 cells/well of 96 well tray) and after 48 hours of normal growth are arrested by replacement of above media with serum-free media for 48 hours consisting of: EMEM: Hams F12 (1:1), insulin, 5 µg/ml; transferrin, 35 µg/ml; selenite, 5 ng/ml; antibiotics and buffer (as above). The oligomer of the present invention to be tested (.01-10 µM) is added 2 hours prior to addition of porcine platelet derived growth factor (Research and Diagonostics, Minneapolis, MN), or FBS,in fresh serum-free media. Twenty-four hours later the oligomers are again added preceding addition of growth factors by 2 hours. […]
The VSMC are pulsed (5 hours) with ^3H-thymidine (Amersham, Arlington Heights, IL) (1 µCi/well of a 96 well plate; 42 Ci/mmole) added 15-18 hours after the last dose of growth factor. DNA synthesis is determined in NaOH extraction of ethanol/ether fixed cells as reported by Nemecek, et al., PNAS 83, 674 (1986). The cells are washed with phosphate bufferred saline (200 µl/well of 96-well tray. The cells are incubated with trichloroacetic acid (TCA) (10%, 200 ul) for 5 minutes to remove cytoplasmic label. After a rapid wash with cold 10% TCA, cells are fixed with ethanol/ether (2:1, 200 µl/well 5 min) and dried. The labeled DNA is extracted with 0.5 N NaOH (200 µl/well 30 min incubation, room temperature). The extracted DNA is neutralized (0.5 N HCI) and counted by liquid scintillation.
Statistical evaluation is as reported by Bilder, et al., Am. […] IC50 values are calculated by linear regression (RPL of RS1) from % inhibition of a minimum of 3 log fold dilutions of oligomers in the presence of PDGF (9 ng/ml) which give 70-80% of a maximal PDGF response. […] Percent inhibition is calculated by comparing the effect of PDGF alone (vehicle treated cultures + PDGF minus vehicle treated cultures without PDGF) to the effect of oligomers (oligomer + PDGF minus oligomer alone) and divided by the effect of PDGF times 100. i.e., = % inhibition = ((ΔVehicle + PDGF) - (Δoligomer + PDGF)/(Δvehicle + PDGF)) x 100.

T1 sequence (P04275 764-2813 limits assumed): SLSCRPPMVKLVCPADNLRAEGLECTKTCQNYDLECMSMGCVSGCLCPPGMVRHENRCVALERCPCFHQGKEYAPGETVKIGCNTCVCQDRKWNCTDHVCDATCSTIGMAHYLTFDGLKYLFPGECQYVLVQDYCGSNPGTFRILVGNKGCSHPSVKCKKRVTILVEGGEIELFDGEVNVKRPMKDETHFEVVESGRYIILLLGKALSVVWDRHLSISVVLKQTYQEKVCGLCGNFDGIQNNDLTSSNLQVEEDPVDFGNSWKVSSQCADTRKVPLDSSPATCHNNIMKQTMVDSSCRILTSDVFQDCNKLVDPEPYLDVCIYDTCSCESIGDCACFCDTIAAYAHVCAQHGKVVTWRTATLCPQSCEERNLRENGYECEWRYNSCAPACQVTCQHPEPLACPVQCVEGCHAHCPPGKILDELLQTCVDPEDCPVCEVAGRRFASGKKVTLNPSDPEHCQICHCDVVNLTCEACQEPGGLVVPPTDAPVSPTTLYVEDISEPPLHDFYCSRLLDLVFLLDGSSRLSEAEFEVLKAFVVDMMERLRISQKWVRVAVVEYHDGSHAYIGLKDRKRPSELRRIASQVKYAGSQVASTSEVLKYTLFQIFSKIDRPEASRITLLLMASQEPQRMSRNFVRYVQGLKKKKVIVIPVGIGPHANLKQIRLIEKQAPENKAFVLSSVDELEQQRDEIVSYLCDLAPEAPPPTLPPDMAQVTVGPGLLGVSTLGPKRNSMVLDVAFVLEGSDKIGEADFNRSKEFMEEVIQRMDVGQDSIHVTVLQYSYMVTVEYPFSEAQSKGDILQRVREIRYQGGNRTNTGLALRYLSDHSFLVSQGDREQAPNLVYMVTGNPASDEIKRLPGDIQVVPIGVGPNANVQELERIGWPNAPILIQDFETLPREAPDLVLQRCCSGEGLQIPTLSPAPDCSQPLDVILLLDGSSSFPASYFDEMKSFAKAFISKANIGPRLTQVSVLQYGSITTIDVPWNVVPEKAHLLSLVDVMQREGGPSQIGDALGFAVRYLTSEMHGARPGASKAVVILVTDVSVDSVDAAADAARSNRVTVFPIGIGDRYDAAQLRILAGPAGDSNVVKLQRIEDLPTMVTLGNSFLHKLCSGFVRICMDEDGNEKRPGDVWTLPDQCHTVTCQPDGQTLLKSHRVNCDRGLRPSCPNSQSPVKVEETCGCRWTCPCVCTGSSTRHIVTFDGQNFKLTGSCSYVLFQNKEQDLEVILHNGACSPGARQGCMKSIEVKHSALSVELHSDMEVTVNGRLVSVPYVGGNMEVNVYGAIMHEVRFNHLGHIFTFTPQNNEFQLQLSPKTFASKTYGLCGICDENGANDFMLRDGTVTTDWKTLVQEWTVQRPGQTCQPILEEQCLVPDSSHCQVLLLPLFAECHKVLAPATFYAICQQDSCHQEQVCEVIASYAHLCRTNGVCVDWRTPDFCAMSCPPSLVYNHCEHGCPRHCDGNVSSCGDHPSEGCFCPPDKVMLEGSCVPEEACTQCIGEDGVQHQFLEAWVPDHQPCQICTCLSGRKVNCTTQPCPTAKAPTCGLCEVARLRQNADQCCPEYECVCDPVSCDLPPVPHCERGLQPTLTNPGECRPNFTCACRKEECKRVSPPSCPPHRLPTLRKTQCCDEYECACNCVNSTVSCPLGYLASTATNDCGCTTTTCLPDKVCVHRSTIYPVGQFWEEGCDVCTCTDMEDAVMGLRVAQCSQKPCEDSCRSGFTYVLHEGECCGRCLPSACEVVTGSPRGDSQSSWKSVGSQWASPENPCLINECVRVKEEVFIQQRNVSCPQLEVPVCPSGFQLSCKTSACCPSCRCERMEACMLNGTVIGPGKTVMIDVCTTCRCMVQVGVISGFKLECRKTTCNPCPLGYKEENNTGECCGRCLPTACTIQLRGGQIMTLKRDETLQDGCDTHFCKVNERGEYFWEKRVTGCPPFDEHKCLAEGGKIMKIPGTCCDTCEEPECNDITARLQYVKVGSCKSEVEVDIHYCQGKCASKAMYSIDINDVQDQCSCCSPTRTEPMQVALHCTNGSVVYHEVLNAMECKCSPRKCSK
T1 sequence (P07359 17-652): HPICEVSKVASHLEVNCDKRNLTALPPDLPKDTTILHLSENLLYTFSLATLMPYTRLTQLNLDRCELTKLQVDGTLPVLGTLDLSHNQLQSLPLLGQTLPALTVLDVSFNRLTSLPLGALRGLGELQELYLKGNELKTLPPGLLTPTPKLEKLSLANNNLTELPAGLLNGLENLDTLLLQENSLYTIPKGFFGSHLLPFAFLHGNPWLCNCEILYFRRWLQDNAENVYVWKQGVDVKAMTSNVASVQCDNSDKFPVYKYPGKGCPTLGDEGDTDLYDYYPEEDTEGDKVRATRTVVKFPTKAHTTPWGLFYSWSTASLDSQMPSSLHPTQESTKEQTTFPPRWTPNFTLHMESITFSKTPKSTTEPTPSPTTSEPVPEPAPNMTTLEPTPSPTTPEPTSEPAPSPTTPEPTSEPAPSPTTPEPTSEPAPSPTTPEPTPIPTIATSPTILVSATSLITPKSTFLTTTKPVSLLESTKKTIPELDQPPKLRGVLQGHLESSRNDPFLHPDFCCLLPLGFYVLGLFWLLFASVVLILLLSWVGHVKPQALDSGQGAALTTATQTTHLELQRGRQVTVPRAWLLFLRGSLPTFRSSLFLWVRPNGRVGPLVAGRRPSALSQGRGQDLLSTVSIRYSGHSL

Structure (SMILES) | inhibition at 100 µg/mL (vWF Binding to Gp1b) | IC50 ([1]; read-out: IC50 (converted)) | IC50 [2] | APTT ICDCT (normal pooled plasma) | IC50 [1] | IC50 ([1]; unit printed in the cell of the nM column, read-out: IC50 (converted))
O=C(O)COc1cc(Cc2cc(OCc3ccccc3)c(Cc3cc(OCc4ccccc4)c(Cc4cc(O)ccc4OCC(=O)O)cc3OCC(=O)O)cc2OCC(=O)O)c(OCc2ccccc2)cc1CO [Ex 16, 4-benzyloxy-5-[4-[4-[[2-carboxymethyloxy-5-hydroxy]benzyl]-[5-benzyloxy-2-carboxymethyloxy]benzyl]-[5-benzyloxy-2-carboxymethyloxy]benzyl]-2-hydroxymethylphenoxyacetic acid] |  | 330 nM and 327 nM |  | 360 µg/mL |  | 
O=C(O)COc1cc(Cc2cc(OCc3ccccc3)ccc2OCC(=O)O)c(O)cc1CCc1cc(O)c(Cc2cc(OCc3ccccc3)ccc2OCC(=O)O)cc1OCC(=O)O [Ex 20, 1,2-bis-[[2-carboxymethyloxy-5-hydroxy-4-(5-benzyloxy-2-carboxymethyloxy)benzyl]phenyl]ethane] |  |  |  | 555 µg/mL | 780 nM and 779 nM | 
CCc1cc(OCC(=O)O)cc(Cc2cc(OCC(=O)O)cc(Cc3cc(OCC(=O)O)cc(Cc4cc(OCC(=O)O)ccc4OC)c3OC)c2OC)c1OC [Ex 22, 5-[3-[3-[[5-carboxymethyloxy-2-methoxy]benzyl]-[5-carboxymethyloxy-2-methoxy]benzyl]-[5-carboxymethyloxy-2-methoxy]benzyl]-3-ethyl-4-methoxyphenoxyacetic acid] |  |  |  | >315 µg/mL |  | > 3e+06 nM

More lines, main results first:

inhibition at 100 µg/mL (vWF Binding to Gp1b) | IC50 ([1]; read-out: IC50 (converted)) | IC50 [2] | Structure (SMILES) | APTT ICDCT (normal pooled plasma) | IC50 [1] | IC50 ([1]; unit printed in the cell of the nM column, read-out: IC50 (converted))
21% | > 1400 nM |  | O=C(O)CCc1cc(Cc2cc(O)ccc2CCC(=O)O)c(O)cc1CCc1cc(O)c(Cc2cc(O)ccc2CCC(=O)O)cc1CCC(=O)O [Ex 3, 1,2-bis-[2-(2-carboxyethyl)-4-[2-(2-carboxyethyl)-5-hydroxybenzyl]-5-hydroxyphenyl]ethane] | 700 µg/mL |  | 
 | 135 nM and 134 nM |  | O=C(O)COc1cc(Cc2cc(O)ccc2OCC(=O)O)c(O)cc1CCc1cc(O)c(Cc2cc(O)ccc2OCC(=O)O)cc1OCC(=O)O [Ex 17, 1 ,2-bis-[[2-carboxymethyloxy-5-hydroxy-4-(5-hydroxy-2-carboxymethyloxy)benzyl]phenyl]ethane] | 580 µg/mL |  | 
 |  | 0.3 µM | O=C(O)COc1cc(Cc2cc(OCc3ccccc3)c(Cc3cc(OCc4ccccc4)c(Cc4cc(OCc5ccccc5)c(Cc5cc(OCc6ccccc6)c(Cc6cc(O)ccc6OCC(=O)O)cc5OCC(=O)O)cc4OCC(=O)O)cc3OCC(=O)O)cc2OCC(=O)O)c(OCc2ccccc2)cc1CO [Ex 19, 4-benzyloxy-5-[4-[4-[4-[4-[[2-carboxymethyloxy-5-hydroxy]benzyl]-[5-benzyloxy-2-carboxymethyloxy]benzyl]-[5-benzyloxy-2-carboxymethyloxy]benzyl]-[5-benzyloxy-2-carboxymethyloxy]benzyl]-[5-benzyloxy-2-carboxymethyloxy]benzyl]-2-hydroxymethylphenoxyacetic acid] | 345 µg/mL |  | 
 |  | 0.3 µM | CCc1cc(OCC(=O)O)cc(Cc2cc(OCC(=O)O)cc(Cc3cc(OCC(=O)O)cc(Cc4cc(OCC(=O)O)cc(Cc5cc(OCC(=O)O)cc(Cc6cc(OCC(=O)O)cc(Cc7cc(OCC(=O)O)cc(Cc8cc(OCC(=O)O)ccc8OC)c7OC)c6OC)c5OC)c4OC)c3OC)c2OC)c1OC [Ex 23, 5-[3-[3-[3-[3-[3-[3-[[5-carboxymethyloxy-2-methoxy]benzyl]-[5-carboxymethyloxy-2-methoxy]benzyl]-[5-carboxymethyloxy-2-methoxy]benzyl]-[5-carboxymethyloxy-2-methoxy]benzyl]-[5-carboxymethyloxy-2-methoxy]benzyl]-[5-carboxymethyloxy-2-methoxy]benzyl]-[5-carboxymethyloxy-2-methoxy]benzyl]-3-ethyl-4-methoxyphenoxyacetic acid] | 300 µg/mL |  | 
